# Laboratory results published in patent US4393178A, “Fast crystallizing polyester compositions” (priority 1979, dated 1983).
# Where a name gives a salt, the structure may show the parent alone. Read-outs that look alike come from different tables or passages of the source.
# Legend:
# [1] = Half-crystallisation time (t1/2), isothermal DSC; assay type: physicochemical
# Experimental: A DSC 2 Perkin Elmer scanning calorimeter was used.
# 10 mg of the sample of polymer material are placed in a capsule and introduced into the apparatus, wherein the sample is quickly heated to a temperature of 290° C. at which it is maintained during 1 minute.
# The molten polymer material is then very quickly cooled by means of liquid air (at a rate of 320° C. per minute) until the crystallisation temperature is reached.
# The crystallisation isotherm is registered on a temperature-time graph and the peak appearing on the registered isotherm is taken as the half-crystallisation time (t1/2).
# [2] = Degradation constant K (melt degradation performance); assay type: physicochemical; parameters: unit not given here
# Experimental: The melt degradation performance is a measure of the extent of degradation under molten conditions. A convenient method of quantifying the performance is by measuring the "K value". A method for determining this value in the molten state using an Instron Capillary rheometer is given in a paper by J. Devaux et al in Makromol.
# (§1) This method is carried out on samples prepared by reacting the salt with the polyester on a 2 roll-mill at a temperature above the melting point of the polyester for 5 minutes and then pressing the product obtained into a 2 mm thick sheet using the same temperature for 3 minutes before cooling to room temperature. The method is described for polyethylene terephthalate but can be readily adapted for other polyesters.
# For polyethylene terephthalate the K value in the presence of salt should be less than 60.
# [3] = ΔT = Tc(cooling) - Tn(heating), DSC; assay type: physicochemical
# Experimental: An alternative method for assessing the effectiveness of nucleation of an additive is to compare the difference between the value of the crystallisation peak on cooling (Tc) with that on heating (Tn) for a composition containing an ionisable salt. The value obtained from this comparison, Tc(cooling) -Tn(heating) is termed ΔT. […] Samples of polyester together with 1% of the salt under test were mixed in a 2-roll mill at 270° C. for 5 minutes. The sample produced was pressed into 2 mm thick sheets at 270° C. for 3 minutes and then cooled to room temperature. 10 mg of the sample was placed in a capsule and rapidly heated to 290° C. After maintaining this temperature for 1 minute the capsule was quenched in water. The crystallisation peak temperatures on heating (Tn) and cooling (Tc) were determined using heating and cooling rates of 10° C./minute on a Perkin Elmer DSC 2 machine.
# [4] = Solubility parameter δ of the acid
# [5] = Crystallinity of injection moulded articles; assay type: physicochemical; details: 0.5% salt, mould 120 °C, cycling time 12 seconds, based on heat of fusion 24 Cal/g
# Experimental: The extruded product of Example 6 has been dried (120° C.) in a ventilated oven. The obtained pellets have been moulded by injection in a Buhler Rover 63 machine.
# Different cycling times have been experimented.
# [6] = cited from earlier work
# [7] = Crystallisation peak temperature on heating (Tn), DSC; assay type: physicochemical; details: for Tn(composition)-Tn(polyester): PET I.V. 0.73 + 1% salt, 2-roll mill 300 °C 2 min, 10 °C/minute; for Tn (16° C./min): 1% salt deposited from solution on PET
# Experimental: In one such DSC technique the crystallisation peak temperature difference, Tn(composition)--Tn(polyester) is determined by measuring the crystallisation peak temperatures on heating for the composition in comparison with the polyester of the composition not containing the ionisable salt. The detailed procedure is as follows. Compositions were prepared from the polyester and the additive by mixing on a 2-roll mill at 300° C. for 2 minutes. The sample was taken from the mill and pressed into a film in a compression moulding machine. 10 mg samples of the composition were placed in a capsule, rapidly heated to 290° C. and maintained at that temperature for 1 minute. The capsule was then dropped into water to quench the polymer and prevent crystallisation. The sample was then placed in a Perkin Elmer DSC 2 machine and heated at a rate of 10° C./minute until reaching a temperature of 290° C. The crystallisation peak temperature observed on this heating cycle is recorded and compared with the value for the polyester not containing the additive.
# Samples of polyethylene terephthalate (I.V. =0.73) containing 1% of the salts listed in Table 2 were prepared by compounding at 300° C. on a 2-roll mill for 2 minutes. The samples were evaluated to determine Tn(composition-Tn(polyester), the total number of end groups, the number of carboxylate groups and the number of hydroxyl and carboxyl groups.
# The salts listed in Table 3 were deposited from solution on the surface of polyethylene terephthalate chip to give a concentration of 1% by weight of salt. The product was dried under vcuum at 96° C. for 3 hours. The compositions were pressed into film using a temperature of 280° C. for 1 minute. The DSC measurements were made after quenching from the melt to prevent crystallisation and using a heating rate of 16° C./minute.
# 1% by weight of the sodium salt of saccharin was deposited on the surface of granules of a polyethylene terephthalate homopolymer of I.V. =0.73 by evaporating an aqueous solution of the salt from the granules by drying at 96° C. under vacuum for 3 hours. The granules obtained were compression moulded into film by pressing at 280° C. for 60 second. The film was used for measurements of Tn at a heating rate of 16° C./minute.
# The effect of the salts listed in Table 4 was determined by taking granules of a polymer of poly(ethylene terephthalate) homopolymer having an intrinsic viscosity of 0.73 and evaporating a solution of the salt in methanol or water from the surface of the granules by drying at 96° C. under vacuum for 3 hours. The proportions of polymer and solution used were such as to give a concentration of 1% of salt by weight of the final dry composition. The granules obtained were compression-moulded into film at 280° C. for various periods of time. The film was used for measurement of Tn as hereinbefore described.
# Two samples of polyethylene terephthalate chip (I.V. =0.73) were coated from solution with 1% of the sodium salt of o-hydroxybenzoic acid and the disodium salt of the same acid respectively. After drying for 3 hours in a vacuum oven at 95° C. films were prepared by pressing the products for 1 minute at 280° C.
# End group determination = assay type: physicochemical
# Experimental: The numbers of hydroxyl and carboxyl groups were also determined according to the procedure given in this paper.
# […] The samples were evaluated to determine Tn(composition-Tn(polyester), the total number of end groups, the number of carboxylate groups and the number of hydroxyl and carboxyl groups.
# [8] = Degradation constant K (melt degradation performance); assay type: physicochemical; parameters: unit not given here; details: 1% salt deposited from solution on PET (Examples 13-15)
# [9] = Crystallisation peak temperature on heating (Tn), DSC, block copolymer; assay type: physicochemical
# Experimental: A block copolymer containing 5% by weight of polyethylene glycol units of molecular weight 1540 in chip form was blended with a solution of the sodium salt of o-chlorobenzoic acid to give a salt concentration of 1% by weight of the polyester. Samples were prepared for DSC analysis using the procedure of Example 15.
# (§2) The polymer used in Example 16 and 1% of the disodium salt of o-hydroxy benzoic acid were compounded on a 2-roll mill at 270° C. for 2 minutes. […] (measured at a heating rate of 10° C./minute).
# [10] = End group determination, block copolymer; assay type: physicochemical; details: 1% salt, 2-roll mill 270 °C 2 minutes
# Experimental: The total number of end groups in the polyester were found by determining the intrinsic viscosity of the polyester and using the correlation between I.V. and number of end groups given in Transactions of the Faraday Societ 1961, Volume 57, pages 150 to 159. The numbers of hydroxyl and carboxyl groups were also determined according to the procedure given in this paper.
# as §2
# [11] = Degradation constant K, block copolymer; assay type: physicochemical; details: 1% salt, 2-roll mill 270 °C 2 minutes, compared with polyester itself
# Experimental: The melt degradation performance is a measure of the extent of degradation under molten conditions. A convenient method of quantifying the performance is by measuring the "K value". A method for determining this value in the molten state using an Instron Capillary rheometer is given in a paper by J. Devaux et al in Makromol. Chem. 179, 2201-2209 (1978).
# as §1, §2
# [12] = 110 °C, 1% salt in PET, 2-roll mill 270 °C 5 min, after melting 1 minute at 290 °C
# [13] = 120 °C, 1% salt in PET, 2-roll mill 270 °C 5 min, after melting 1 minute at 290 °C
# [14] = 1% salt in PET, 2-roll mill 270 °C 5 min, molten state 290 °C
# [15] = 1% salt in PET, 2-roll mill 270 °C 5 min, 10 °C/minute
# [16] = PET I.V. 0.73 + 1% salt, 2-roll mill 300 °C 2 min
# [17] = pressed 280 °C 1 minute, heating rate 16 °C/minute
# [18] = 1% salt deposited from solution on PET chip, pressed 280 °C 1 minute
compound,measurement,setting,value
O=C([O-])c1ccc([N+](=O)[O-])cc1Cl.[Na+],t1/2 (sec) 110° C.,[1],90 s
same,t1/2 (sec) 120° C.,[1],48 s
same,K,[2],39
same,ΔT,[3],103
same,δ × pKH.sbsb.2O,[4],26
same,crystallinity,[5],40%
same,pKH.sbsb.2O,[6]; water,2
"O=C(O)c1ccc(Cl)cc1Cl [2,4-dichlorobenzoic acid]",t1/2 (sec) 110° C.,[1]; [12],60 s
same,t1/2 (sec) 120° C.,[1]; [13],35 s
same,K,[2]; [14],65
same,ΔT,[3]; [15],109 °C
same,δ × pKH.sbsb.2O,[4]; product for the acid,34
same,Tn(composition)-Tn(polyester),[7],23 °C
same,% of carboxylate end group,End group determination; [16],16.7%
same,End Groups --COOH,End group determination; [16],67 moles × 10^-6 g^-1
same,End Groups --OH,End group determination; [16],55 moles × 10^-6 g^-1
same,End Groups Carboxylate,End group determination; [16],32 moles × 10^-6 g^-1
same,End Groups Total from solution I.V.,End group determination; [16],192 moles × 10^-6 g^-1
same,pKH.sbsb.2O,"[6]; acid from which the salt is derived, in water",2.8
O=C(O)c1ccco1 [Sodium salt of 2-furoic acid],Tn (16° C./min),[7]; [17],127 °C
same,End Groups --COOH,End group determination; [18],29 moles × 10^-6 g^-1
same,End Groups --OH,End group determination; [18],62 moles × 10^-6 g^-1
same,End Groups Total from solution I.V.,End group determination; [18],121 moles × 10^-6 g^-1
same,K,[8],65
O=C(O)c1cccs1 [Sodium salt of 2-thiophencarboxylic acid],Tn(comp.)-Tn(PET) (16° C./min),"[7]; 1% salt deposited from solution on PET chip, pressed 280 °C 1 minute, heating rate 16 °C/minute",29 °C
same,Tn (16° C./min),[7]; [17],112 °C
same,End Groups --COOH,End group determination; [18],24 moles × 10^-6 g^-1
same,End Groups --OH,End group determination; [18],59 moles × 10^-6 g^-1
same,End Groups Total from solution I.V.,End group determination; [18],145 moles × 10^-6 g^-1
same,K,[8],15
O=C(O)c1ccccc1O [ortho-ONa-benzoic acid],t1/2 (sec) 110° C.,[1],70 s
same,t1/2 (sec) 120° C.,[1],49 s
same,K,[2]; [14],24
same,ΔT,[3]; [15],110 °C
same,Tn (16° C./min),"[7]; pressed 280 °C 1 minute, heating rate 16 °C/minute, listed as disodium salt of o-hydroxy benzoic acid",108 °C
same,Tn,"[9]; 1% salt, 2-roll mill 270 °C 2 minutes, block copolymer, heating rate 10 °C/minute",100 °C
same,total number of end groups determined from the intrinsic viscosity,[10],137
same,K value,[11],less than that for the polyester itself
same,K,[8]; listed as disodium salt of o-hydroxy benzoic acid,24
O=C(O)c1ccccc1Cl [ortho-chlorobenzoic acid],t1/2 (sec) 110° C.,[1]; [12],65 s
same,t1/2 (sec) 120° C.,[1]; [13],36 s
same,K,[2]; [14],32
same,ΔT,[3]; [15],108 °C
same,δ × pKH.sbsb.2O,[4]; product for the acid,37
same,Tn(composition)-Tn(polyester),[7],26 °C
same,% of carboxylate end group,End group determination; [16],22%
same,End Groups --COOH,End group determination; [16],45 moles × 10^-6 g^-1
same,End Groups --OH,End group determination; [16],55 moles × 10^-6 g^-1
same,End Groups Carboxylate,End group determination; [16],37 moles × 10^-6 g^-1
same,End Groups Total from solution I.V.,End group determination; [16],167 moles × 10^-6 g^-1
same,Tn,"[9]; 1% salt from solution on block copolymer, heating rate 16 °C/minute",102 °C
same,pKH.sbsb.2O,[6]; water,3
O=C(O)c1ccccc1O [ortho-hydroxy benzoic acid],t1/2 (sec) 110° C.,[1],80 s
same,t1/2 (sec) 120° C.,[1],40 s
same,K,[2]; [14],26
same,ΔT,[3]; [15],105 °C
same,Tn (16° C./min),"[7]; pressed 280 °C 1 minute, heating rate 16 °C/minute, listed as sodium salt of o-hydroxybenzoic acid",114 °C
same,K,[8]; listed as sodium salt of o-hydroxybenzoic acid,26
O=C1NS(=O)(=O)c2ccccc21 [sodium salt of saccharin],Tn (16° C./min),[7]; [17],112 °C
same,K,[8],9
